PMC8611673 (JACS Au, 2021)

System: HeLa 654 cells
Experiment: EGFP assay with chemical endocytosis inhibitors
Assay type: cell-based, human
Settings: higher concentrations of the inhibitor

Row | SMILES | toxicity of the inhibitor to HeLa 654 cells
1 | COC[C@H]1OC(=O)c2coc3c2[C@@]1(C)C1=C(C3=O)[C@@H]2CCC(=O)[C@@]2(C)C[C@H]1OC(C)=O [wortmannin] | appeared to be toxic
2 | C=C1[C@@H](C)[C@H]2[C@H](Cc3ccccc3)NC(=O)[C@]23[C@H](OC(C)=O)/C=C/[C@@](C)(O)C(=O)[C@@H](C)C/C=C/[C@H]3[C@@H]1O [cytochalasin D] | appeared to be toxic
